The record followed here is patent publication US9227967B2, “Inhibitor compounds of semicarbazide-sensitive amine oxidases” (Proximagen Limited, priority 2010, dated 2016).

What is called IC50 is the point on the concentration scale where inhibition reaches its midpoint.

The assay deals with T1, human SSAO (Homo sapiens, UniProt Q16853).
T1 construct: made in house
T1 sequence (Q16853 29-763 limits assumed): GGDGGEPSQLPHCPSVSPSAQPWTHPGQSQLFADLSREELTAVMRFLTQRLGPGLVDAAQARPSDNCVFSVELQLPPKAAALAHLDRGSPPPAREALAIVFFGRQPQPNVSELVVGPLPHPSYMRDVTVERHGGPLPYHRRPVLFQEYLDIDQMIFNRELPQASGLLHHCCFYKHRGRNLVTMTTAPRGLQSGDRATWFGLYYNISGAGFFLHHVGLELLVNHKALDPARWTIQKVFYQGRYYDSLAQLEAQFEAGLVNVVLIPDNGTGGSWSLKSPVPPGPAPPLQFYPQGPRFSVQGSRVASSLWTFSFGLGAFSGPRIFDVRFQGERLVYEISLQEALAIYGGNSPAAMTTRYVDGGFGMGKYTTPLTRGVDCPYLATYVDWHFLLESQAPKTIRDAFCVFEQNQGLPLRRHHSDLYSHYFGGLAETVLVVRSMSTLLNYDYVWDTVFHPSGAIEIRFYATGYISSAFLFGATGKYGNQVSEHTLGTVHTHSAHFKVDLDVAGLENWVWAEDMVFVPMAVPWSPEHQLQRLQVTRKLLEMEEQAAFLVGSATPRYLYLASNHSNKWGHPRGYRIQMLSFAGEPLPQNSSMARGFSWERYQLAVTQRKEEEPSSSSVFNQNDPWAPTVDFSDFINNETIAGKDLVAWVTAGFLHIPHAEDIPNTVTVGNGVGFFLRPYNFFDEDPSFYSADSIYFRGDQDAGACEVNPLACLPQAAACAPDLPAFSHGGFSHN
Briefly: SSAO enzyme inhibition assay (benzylamine substrate; HRP-coupled hydrogen peroxide detection or 14C-benzaldehyde detection). The class given is biochemical. Conditions: purified recombinantly expressed human SSAO, benzylamine as substrate, r.t.; read-out: SSAO inhibitory activity IC50. The protocol: All primary assays were performed at r.t. with purified recombinantly expressed human SSAO. Enzyme was prepared essentially as described in Öhman et al. (Protein Expression and Purification 46 (2006) 321-331). In addition, secondary- and selectivity assays were performed using SSAO prepared from various tissues or purified rat recombinant SSAO. The enzyme activity was assayed with benzylamine as substrate by measuring either benzaldehyde production, using ^14C-labeled substrate, or by utilizing the production of hydrogen peroxide in a horseradish peroxidise (HRP) coupled reaction. Briefly, test compounds were dissolved in dimethyl sulfoxide (DMSO) to a concentration of 10 mM. Dose-response measurements were assayed by either creating 1:10 serial dilutions in DMSO to produce a 7 point curve or by making 1:3 serial dilutions in DMSO to produce 11 point curves. The top concentrations were adjusted depending on the potency of the compounds and subsequent dilution in reaction buffer yielded a final DMSO concentration ≦2%.
In a horseradish peroxidise (HRP) coupled reaction, hydrogen peroxide oxidation of 10-acetyl-3,7-dihydroxyphenoxazine produced resorufin, which is a highly fluorescent compound (Zhout and Panchuk-Voloshina. Analytical Biochemistry 253 (1997) 169-174; Amplex® Red Hydrogen Peroxide/peroxidise Assay kit, Invitrogen A22188). Enzyme and compounds in 50 mM sodium phosphate, pH 7.4 were set to pre-incubate in flat-bottomed microtiter plates for approximately 15 minutes before initiating the reaction by addition of a mixture of HRP, benzylamine and Amplex reagent. Benzylamine concentration was fixed at a concentration corresponding to the Michaelis constant, determined using standard procedures. Fluorescence intensity was then measured at several time points during 1-2 hours, exciting at 544 nm n and reading the emission at 590 nm. For the human SSAO assay final concentrations of the reagents in the assay wells were: SSAO enzyme 1 μg/ml, benzylamine 100 μM, Amplex reagent 20 μM, HRP 0.1 U/mL and varying concentrations of test compound. The inhibition was measured as % decrease of the signal compared to a control without inhibitor (only diluted DMSO). The background signal from a sample containing no SSAO enzyme was subtracted from all data points. Data was fitted to a four parameter logistic model and IC50 values were calculated using the GraphPad Prism 4 or XLfit 4 programs.
SSAO activity was assayed using 14C-labeled benzylamine and analysed by measuring radioactive benzaldehyde. In a white 96-well optiplate (Packard), 20 μL of diluted test compound was pre-incubated at r.t. with 20 μL SSAO enzyme for approximately 15 minutes with continuous agitation. All dilutions were made with PBS. The reaction was initiated by adding 20 μL of the benzylamine substrate solution containing [7-14C] Benzylamine hydrochloride (CFA589, GE Healthcare). The plate was incubated for 1 hour as above after which the reaction was stopped by acidification (10 μL 1 M HCl). Then 90 μL Micro Scint-E solution (Perkin-Elmer) was added to each well and the plate was continuously mixed for 15 minutes. Phase separation occurred instantly and activity was read in a Topcount scintillation counter (Perkin-Elmer). In the final reaction well, human recombinant SSAO concentration was 10 μg/ml. In order to optimize sensitivity, the substrate concentration was decreased as compared to the HRP coupled assay in order to get a higher fraction of radioactive product. In the human SSAO assay, benzylamine concentration was 40 μM (0.2 μCi/mL). Data was analysed as above.

Structures are written as SMILES. Structures can show the parent of a compound that is named as a salt.

`FC(F)c1ccc(-n2nc(C3CCOCC3)c3ccncc32)cc1` [Compound 42, 1-[4-(Difluoromethyl)phenyl]-3-(oxan-4-yl)-1H-pyrazolo[3,4-c]pyridine]: the IC50 was 100 to 500 nM. `O=C(CO)N1CCC(n2cc(-c3ccc(Cl)c(Cl)c3)c3cnccc32)CC1` [Compound 7, 1-{4-[3-(3,4-Dichlorophenyl)-1H-pyrrolo[3,2-c]pyridin-1-yl]piperidin-1-yl}-2-hydroxyethan-1-one]: the IC50 was 500 to 2500 nM. In the case of `Clc1ccc(-n2nc(N3CCNCC3)c3ccncc32)cc1` [Compound 70, 1-[1-(4-Chlorophenyl)-1H-pyrazolo[3,4-c]pyridin-3-yl]piperazine], the IC50 lay in the range of 500 to 2500 nM. As for `Cc1ccc(-n2nc(N3CCOCC3)c3ccncc32)cc1` [Compound 57, 2,2,2-Trifluoroacetic acid; 4-[1-(4-methylphenyl)-1H-pyrazolo[3,4-c]pyridin-3-yl]morpholine], the figure is under 100 nM; as for `Fc1ccc(-n2cc(C3CCOCC3)c3ccncc32)cc1` [Compound 100, 1-(4-Fluorophenyl)-3-(oxan-4-yl)-1H-pyrrolo[2,3-c]pyridine], 100 to 500 nM. Turning to `Cc1ccc(-n2nc(N3CCOCC3C(=O)N3CCOCC3)c3ccncc32)cc1` (centres unmarked) [Compound 78, 4-[1-(4-Methylphenyl)-1H-pyrazolo[3,4-c]pyridin-3-yl]-3-[(morpholin-4-yl)carbonyl]morpholine], the IC50 fell in the range of 500 to 2500 nM. On to `CC1CN(c2nn(-c3ccc(Cl)cc3)c3cnccc23)CCO1` (centres unmarked) [Compound 59, 4-[1-(4-Chlorophenyl)-1H-pyrazolo[3,4-c]pyridin-3-yl]-2-methylmorpholine], for which the IC50 was under 100 nM. The value for `FC1(F)CCN(c2nn(-c3ccc(Cl)cc3)c3cnccc23)C1` [Compound 48, 1-[1-(4-Chlorophenyl)-1H-pyrazolo[3,4-c]pyridin-3-yl]-3,3-difluoropyrrolidine] was 100 to 500 nM.

In the case of `Cc1ccc(-n2nc(N3CCC(C(N)=O)CC3)c3ccncc32)cc1` [Compound 54, 1-[1-(4-Methylphenyl)-1H-pyrazolo[3,4-c]pyridin-3-yl]piperidine-4-carboxamide], the IC50 was under 100 nM. As to `Cc1ccc(-n2nc(N3CCOC(CN)C3)c3ccncc32)cc1` (centres unmarked) [Compound 72, {4-[1-(4-Methylphenyl)-1H-pyrazolo[3,4-c]pyridin-3-yl]morpholin-2-yl}methanamine], the IC50 is 100 to 500 nM. On to `N#CCCCN1CCC(c2cn(-c3ccc(Cl)cc3)c3cnccc23)CC1` [Compound 22, 4-{4-[1-(4-Chlorophenyl)-1H-pyrrolo[2,3-c]pyridin-3-yl]piperidin-1-yl}butanenitrile hydrochloride], for which the IC50 lay in the range of 100 to 500 nM. As for `CC1COCCN1c1nn(-c2ccc(Cl)cc2)c2cnccc12` (centres unmarked) [Compound 60, 4-[1-(4-Chlorophenyl)-1H-pyrazolo[3,4-c]pyridin-3-yl]-3-methylmorpholine], the figure is under 100 nM; as for `Clc1ccc(-n2cc(CN3CCOCC3)c3ccncc32)cc1` [Compound 29, 4-{[1-(4-Chlorophenyl)-1H-pyrrolo[2,3-c]pyridin-3-yl]methyl}morpholine], 500 to 2500 nM; as for `NCCOC(=O)N1CCC(c2cn(-c3ccc(Cl)cc3)c3cnccc23)CC1` [Compound 106, 2-Aminoethyl 4-[1-(4-chlorophenyl)-1H-pyrrolo[2,3-c]pyridin-3-yl]piperidine-1-carboxylate], under 100 nM. Regarding `Clc1ccc(-c2cn(C3CCOC3)c3ccncc23)cc1` (centres unmarked) [Compound 3, 3-(4-Chlorophenyl)-1-(oxolan-3-yl)-1H-pyrrolo[3,2-c]pyridine], the IC50 was in the range of 100 to 500 nM. In the case of `Clc1ccc(-n2cc(C3CCN(Cc4cc[nH]n4)CC3)c3ccncc32)cc1` [Compound 19, 4-[1-(4-Chlorophenyl)-1H-pyrrolo[2,3-c]pyridin-3-yl]-1-(1H-pyrazol-3-ylmethyl)-piperidine], the 50% inhibitory concentration (IC50) is 100 to 500 nM. For `Clc1ccc(-n2nc(C3CCOCC3)c3ncncc32)cc1` [Compound 99, 1-(4-Chlorophenyl)-3-(oxan-4-yl)-1H-pyrazolo[4,3-d]pyrimidine], the IC50 was in the range of 500 to 2500 nM. As for `NC1CCN(c2nn(-c3ccc(Cl)cc3)c3cnccc23)CC1` [Compound 71, 1-[1-(4-Chlorophenyl)-1H-pyrazolo[3,4-c]pyridin-3-yl]piperidin-4-amine], the figure is 100 to 500 nM; as for `NCCC(=O)N1CCC(c2cn(-c3ccc(Cl)cc3)c3cnccc23)CC1` [Compound 17, 3-Amino-1-{4-[1-(4-chlorophenyl)-1H-pyrrolo[2,3-c]pyridin-3-yl]piperidin-1-yl}propan-1-one hydrochloride], under 100 nM. As for `Cc1ccc(-n2nc(C3CCOCC3)c3ccncc32)c(F)c1` [Compound 43, 1-(2-Fluoro-4-methylphenyl)-3-(oxan-4-yl)-1H-pyrazolo[3,4-c]pyridine], the IC50 lay in the range of 100 to 500 nM. `Cc1ccc(-n2nc(N3CCOC(CC(C)C)C3)c3ccncc32)cc1` (centres unmarked) [Compound 61, 4-[1-(4-Methylphenyl)-1H-pyrazolo[3,4-c]pyridin-3-yl]-2-(2-methylpropyl)morpholine]: the IC50 was in the range of 100 to 500 nM. As for `OCc1cn(-c2ccc(Cl)cc2)c2cnccc12` [Compound 23, [1-(4-Chlorophenyl)-1H-pyrrolo[2,3-c]pyridin-3-yl]methanol], the IC50 fell in the range of 500 to 2500 nM.

Take `Cc1ccc(-n2nc(C3CCOCC3)c3ccncc32)cn1` [Compound 47, 2-Methyl-5-[3-(oxan-4-yl)-1H-pyrazolo[3,4-c]pyridin-1-yl]pyridine]: the IC50 is 500 to 2500 nM.

Regarding `Cc1ccc(-n2cc(C3CCOCC3)c3ccncc32)cc1` [Compound 102, 1-(4-Methylphenyl)-3-(oxan-4-yl)-1H-pyrrolo[2,3-c]pyridine], the IC50 is under 100 nM. `Cc1ccc(-n2nc(N3CCOCC3C(=O)NCCN)c3ccncc32)cc1` (centres unmarked) [Compound 79, N-(2-Aminoethyl)-4-[1-(4-methylphenyl)-1H-pyrazolo[3,4-c]pyridin-3-yl]morpholine-3-carboxamide dihydrochloride]: the IC50 is 100 to 500 nM. As to `Fc1cc(Cl)ccc1-n1nc(C2CCOCC2)c2ccncc21` [Compound 44, 1-(4-Chloro-2-fluorophenyl)-3-(oxan-4-yl)-1H-pyrazolo[3,4-c]pyridine], the IC50 was under 100 nM. In the case of `COc1cncc2c1c(C1CCOCC1)nn2-c1ccc(Cl)cc1` [Compound 94, 1-(4-Chlorophenyl)-4-methoxy-3-(oxan-4-yl)-1H-pyrazolo[3,4-c]pyridine], the IC50 lay in the range of 500 to 2500 nM. For the molecule `N#CCCN1CCC(c2cn(-c3ccc(Cl)cc3)c3cnccc23)CC1` [Compound 21, 3-{4-[1-(4-Chlorophenyl)-1H-pyrrolo[2,3-c]pyridine-3-yl]piperidin-1-yl}propanenitrile hydrochloride], the IC50 lay in the range of 100 to 500 nM. As to `c1ccc(-n2nc(C3CCOCC3)c3ccncc32)cc1` [Compound 40, 3-(Oxan-4-yl)-1-phenyl-1H-pyrazolo[3,4-c]pyridine], the 50% inhibitory concentration (IC50) was 500 to 2500 nM.
